The supplement of paper PMC11962398

compound: C[C@H]1CNCCN1c1nccc(-c2noc3c2CCC[C@@]32CCCc3sc(N)c(C#N)c32)n1 [BI-2493]; test: 1 - AUC of viability dose-response curve (sensitivity) (fraction); higher = more sensitive; conditions: 5 days
Protocol: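 PRISM pooled barcoded cancer cell line viability screen (Broad Institute) with BI-2493 at 8 doses in threefold dilutions from 0.00457 to 10 µmol/L, 5-day treatment; curves fitted per cell line. IC50 is undefined (placeholder) for resistant lines. AUC is capped at 1, and sensitivity is reported as 1 − AUC.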

Test System	1 - AUC of viability dose-response curve
RERFLCKJ_LUNG	0.0525
LOVO_LARGE_INTESTINE	0.246
MP41_UVEA	0.119
SW780_URINARY_TRACT	0.22
NCIH650_LUNG	0.0133
CAPAN2_PANCREAS	0.303
HEC1_ENDOMETRIUM	0.131
TC32_BONE	0.0484
EKVX_LUNG	0.146
TC71_BONE	0.0115
CORL23_LUNG	0.0991
MOLT16_HAEMATOPOIETIC_AND_LYMPHOID_TISSUE	0.297
NCIH2122_LUNG	0.138
BONNA12_HAEMATOPOIETIC_AND_LYMPHOID_TISSUE	0.117
HUPT3_PANCREAS	0.182
HEPG2_LIVER	0.0929
RBE_BILIARY_TRACT	0.243
NCIH1355_LUNG	0.219
143B_BONE	0.0198
IGR37_SKIN	0.111
921_UVEA	0.13
A2058_SKIN	0.0892
BICR78_UPPER_AERODIGESTIVE_TRACT	0.173
PACADD137_PANCREAS	0.104
MDAMB453_BREAST	0.115
HTMMT_ENDOMETRIUM	0.0985

Test System	1 - AUC of viability dose-response curve
EFM19_BREAST	0.0426
CHLA200_CENTRAL_NERVOUS_SYSTEM	0.0104
SG231_BILIARY_TRACT	0.286
HS944T_SKIN	0.103
ECC10_STOMACH	0.0829
TE14_OESOPHAGUS	0.00721
CADOES1_BONE	0.00999
BT549_BREAST	0.0828
HSC3_UPPER_AERODIGESTIVE_TRACT	0.138
HEC251_ENDOMETRIUM	0.282
MM1S_HAEMATOPOIETIC_AND_LYMPHOID_TISSUE	0.413
NCIH661_LUNG	0.155
NCIH1944_LUNG	0.22
DMS53_LUNG	0.114
NCIH1975_LUNG	0.0712
HA1E_KIDNEY	0.223
HS294T_SKIN	0.0895
ESS1_ENDOMETRIUM	0.362
FLO1_OESOPHAGUS	0.0758
ALLSIL_HAEMATOPOIETIC_AND_LYMPHOID_TISSUE	0.033
SUM149PT_BREAST	0.168
H413_UPPER_AERODIGESTIVE_TRACT	0.126
697_HAEMATOPOIETIC_AND_LYMPHOID_TISSUE	0.0309
SIMA_AUTONOMIC_GANGLIA	0.159
SW837_LARGE_INTESTINE	0.0901
PEDS015T_SOFT_TISSUE	0.0985

Test System	1 - AUC of viability dose-response curve
TT_THYROID	0.0835
WM88_SKIN	0.0214
SF539_CENTRAL_NERVOUS_SYSTEM	0.173
OCIM1_HAEMATOPOIETIC_AND_LYMPHOID_TISSUE	0.0683
HUH7_LIVER	0.0355
LS513_LARGE_INTESTINE	0.494
SW900_LUNG	0.115
HEC1B_ENDOMETRIUM	0.175
HS939T_SKIN	0.0542
HCC15_LUNG	0.0598
HUG1N_STOMACH	0.393
PANC1_PANCREAS	0.128
HPAFII_PANCREAS	0.396
HOTHC_THYROID	0.00917
KURAMOCHI_OVARY	0.129
GSS_STOMACH	0.19
KYSE150_OESOPHAGUS	0.131
SNU719_STOMACH	0.00913
NCIH647_LUNG	0.171
TE617T_SOFT_TISSUE	0.193
KE39_STOMACH	0.351
NCIH226_LUNG	0.134
HT29_LARGE_INTESTINE	0.15
SNU201_CENTRAL_NERVOUS_SYSTEM	0.0868
